How the values were obtained:
DMRV model mice [1] = assay: Muscle contraction test; assay type: in vivo; conditions: vs placebo group
Method: (§1) 20 mg/kg body weight/day of ManNAc (N=6), NeuAc (N=5), or sialyllactose (N=7) dissolved in drinking water was administered to the DMRV model mice between 11- to 15-week old and 56- to 58-week old for 43 to 45 weeks. 40 mg (N=5) or 400 mg/kg body weight/day (N=4) of Ac4ManNAc dissolved in drinking water was administered to the DMRV model mice of the same ages for 43 to 47 weeks. Drinking water free of the pharmaceutical agents was supplied to mice in a placebo group.
(§2) During the administration of the pharmaceutical agent, the measurement of the body weight, the determination of the survival rate, blood collection (0, 25, and 49 days after the start of administration, and thereafter at intervals of 28 days), and a hanging test (0 and 49 days after the start of administration, and thereafter at intervals of 56 days) were performed at regular intervals. Survivors after the administration (ManNAc-treated group: N=5, NeuAc-treated group: N=5, sialyllactose group: N=6) were subjected to a treadmill test. A muscle tissue was then excised and was subjected to a muscle contraction test, the measurement of the amount of NeuAc, and pathological observation.
After pentobarbital sodium (40 mg/kg body weight) was intraperitoneally administered to a mouse for anesthesia, a continuous muscle tissue of the tibialis anterior muscle and the gastrocnemius muscle was isolated. A terminal tendon of the isolated muscle tissue and the tibia were tied with a thread. The ends of the thread were connected at right angles to a tube for hanging a thread (a muscle length controller) and an isotonic transducer (TB-651T (for the gastrocnemius muscle) or TB-653TD-112S (for the tibialis anterior muscle), Nihon Kohden Corp.). The muscle tissue was placed in a lactated Ringer's solution (95% O2, 5% CO2). An electrostimulator (SEN-3301, Nihon Kohden Corp.) and an amplifier (PP-106H, Nihon Kohden Corp.) were used to expand the muscle tissue while providing 400 μs twitch stimulation. A length (L0) at which the maximum contractile force was produced and the contractile force (isometric contractile force: Pt) at that length were measured. While the muscle tissue was held at the length (L0) at which the contractile force was produced, the electrical stimulation was […] to 3 ms. The maximum contractile force (P0) was determined while 10- to 1000-Hz repetitive stimulation was provided 300 to 600 times at intervals of 2 minutes or more. After the measurement, the average cross-sectional area (CSA: muscle weight/L0) of the muscle tissue was calculated.

DMRV model mice [2] = assay: Survival rate of treated DMRV model mice; assay type: in vivo; conditions: vs placebo group
Method: DMRV model mice were GNE^(−/−)hGNED176V-Tg described in Japanese Unexamined Patent Application Publication No. 2007-312641. Healthy litters having no GNE gene mutation were used as controls. The mice in the present example freely take water and feed and ingest 14 mg/kg body weight/day of N-acetylneuraminic acid compound on average.
as §1, §2

DMRV model mice [3] = assay: Blood creatine kinase activity; assay type: in vivo; conditions: 20 mg/kg body weight/day in drinking water; vs placebo group
Method: as §1, §2
During the administration of the pharmaceutical agent, blood was collected from a tail of a mouse at regular intervals. The blood was centrifuged to prepare blood serum. Blood creatine activity was measured with a Determiner CPK-L kit (Kyowa Medex Co., Ltd.). The blood serum was electrophoresed using a Titan Gel Isoenzyme kit (Helen Laboratories) to identify creatine kinase. It is known that creatine kinase moves into blood when strenuous exercise or myopathy damages muscle fibers.

DMRV model mice [4] = assay: Number of formed rimmed vacuoles and amyloid-positive cells; assay type: in vivo; conditions: 20 mg/kg body weight/day in drinking water; vs placebo group
Method: as §1, §2
In six H-E stained pathological sections having a thickness of 10 μm prepared at intervals of 100 μm, the number of rimmed vacuoles observed over the cross section of the muscular tissue was counted. In order to count the number of amyloid-positive protein deposits, the number of cells having deposits labeled with an anti-amyloid antibody (6E10) observed over the cross section of the muscular tissue was counted in six sections having a thickness of 10 μm prepared at intervals of 100 μm.

[5] = system: primary cultured cells of myotubes derived from the DMRV human patients; assay: Amount of NeuAc by HPLC in myotubes from DMRV human patients; assay type: cell-based; conditions: three days, N=3
Source text: DMRV human patients are adult patients that have been diagnosed with DMRV by means of GNE gene mutation screening. (Number of patients: 42, the age of the onset of the disease: 20 to 30, sex: male and female) In accordance with a protocol approved by National Center of Neurology and Psychiatry, after obtaining informed consent, skeletal muscles (biceps brachii muscles and anterior tibial muscles) were collected from these patient volunteers under local anesthesia by means of biopsy.
The skeletal muscle tissues collected from the DMRV human patients or the model mice were lightly washed with PBS or Hank's balanced saline and were treated with 0.25% trypsin for 5 minutes. The tissues were finely cut into several millimeters with ophthalmic scissors, were digested with 0.4% collagenase II/0.25% trypsin at 37° C. for 30 minutes, and were left still to collect supernatant. The precipitate was again treated with the enzyme liquid. After being left still, the precipitate was well suspended in a DMEM-Ham's F-12 culture medium. The tissue suspension was passed through a nylon mesh to remove the tissues. The washings and the supernatant were centrifuged to collect cells. The cells thus collected were plated on a DMEM-Ham's F-12 culture medium at a cell density of 10^6 in a 100-mm plastic dish and were cultured at 37° C. in 5% CO2 for 4 to 7 days.
In the case that the sample was cultured cells, the cells were washed with PBS three times, and 400 p. 1 of 50 mM sulfuric acid was added to the cells. The cells were incubated at 80° C. for 60 minutes and were hydrolyzed to release NeuAc and NeuGc. In the case that the sample was a piece of tissue, the tissue was frozen, was pulverized with an air hammer, and was homogenized in a KCl-tris solution. […] The fluorescent derivative thus prepared was analyzed with HPLC (JASCO Corp.) using 0.05 to 5 nmol/μl Neu5Ac and Neu5Gc standards. The amount of protein from the tissue was measured with a Bio-Rad Protein Assay kit (Bio-Rad Laboratories).
[…] The amount of NeuAc in the cultured cells was measured by the HPLC method described above (N=3).

[6] = 20 mg/kg body weight/day in drinking water
[7] = 20 mg/kg body weight/day in drinking water, 43 to 45 weeks
[8] = final concentration 0.005, 0.05, 0.5 or 5 mM

CC(=O)N[C@H]1[C@H]([C@H](O)[C@H](O)CO)O[C@@](O[C@H]2[C@@H](O)[C@@H](CO)O[C@@H](O[C@H]3[C@H](O)[C@@H](O)C(O)O[C@@H]3CO)[C@@H]2O)(C(=O)O)C[C@@H]1O (stereo partly shown) [sialyllactose, NeuAcα2-3Galβ1-4Glc]
Pt per cross-sectional area of the muscle (DMRV model mice [1]; [6]): significantly higher | cross-sectional area of the gastrocnemius muscle (DMRV model mice [1]; [6]): significantly higher | specific contractile force of the gastrocnemius muscle (P0 per cross-sectional area of the muscle) (DMRV model mice [1]; [6]): significantly higher | survival rate (DMRV model mice [2]; [7]): significantly higher | blood creatine kinase activity (DMRV model mice [3]): significantly lower | number of amyloid positive cells (DMRV model mice [4]): significantly lower | number of rimmed vacuoles (DMRV model mice [4]): significantly lower

CC(=O)N[C@H]1[C@H]([C@H](O)[C@H](O)CO)OC(O)(C(=O)O)C[C@@H]1O (stereo partly shown) [NeuAc, N-acetylneuraminic acid]
Pt per cross-sectional area of the muscle (DMRV model mice [1]; [6]): significantly higher | cross-sectional area of the gastrocnemius muscle (DMRV model mice [1]; [6]): significantly higher | specific contractile force of the gastrocnemius muscle (P0 per cross-sectional area of the muscle) (DMRV model mice [1]; [6]): significantly higher | survival rate (DMRV model mice [2]; [7]): significantly higher | blood creatine kinase activity (DMRV model mice [3]): significantly lower | number of amyloid positive cells (DMRV model mice [4]): significantly lower | number of rimmed vacuoles (DMRV model mice [4]): significantly lower | amount of NeuAc in the cells [5, 8]: effective in increasing the amount of NeuAc in the cells in a manner that depended on their doses

CC(=O)N[C@@H]1C(O)O[C@H](CO)[C@@H](O)[C@@H]1O (stereo partly shown) [ManNAc, N-acetylmannosamine, reference compound]
Pt per cross-sectional area of the muscle (DMRV model mice [1]; [6]): significantly higher | cross-sectional area of the gastrocnemius muscle (DMRV model mice [1]; [6]): significantly higher | specific contractile force of the gastrocnemius muscle (P0 per cross-sectional area of the muscle) (DMRV model mice [1]; [6]): significantly higher | survival rate (DMRV model mice [2]; [7]): significantly higher | blood creatine kinase activity (DMRV model mice [3]): significantly lower | number of amyloid positive cells (DMRV model mice [4]): significantly lower | number of rimmed vacuoles (DMRV model mice [4]): significantly lower | amount of NeuAc in the cells [5, 8]: effective in increasing the amount of NeuAc in the cells in a manner that depended on their doses

CC(=O)N[C@@H]1C(OC(C)=O)O[C@H](COC(C)=O)[C@@H](OC(C)=O)[C@@H]1OC(C)=O (stereo partly shown) [Ac4ManNAc, Tetra-O-acetyl-N-acetylmannosamine]
specific contractile force of the gastrocnemius muscle (DMRV model mice [1]; 40 mg/kg): significantly higher | Pt per cross-sectional area of the muscle (DMRV model mice [1]; 400 mg/kg): significantly higher | specific contractile force of the gastrocnemius muscle (DMRV model mice [1]; 400 mg/kg): significantly higher | survival rate (DMRV model mice [2]; 40 or 400 mg/kg body weight/day in drinking water, 43 to 47 weeks): higher | amount of NeuAc in the cells ([5]; final concentration 0.0002, 0.002, 0.02 or 0.2 mM): effective in increasing the amount of NeuAc at low concentrations in a manner that depended on its dose

— US20120264928A1, “THERAPEUTIC PHARMACEUTICAL AGENT FOR DISEASES ASSOCIATED WITH DECREASE IN FUNCTION OF GNE PROTEIN, FOOD COMPOSITION, AND FOOD ADDITIVE” (JAPAN HEALTH SCIENCES FOUNDATION, priority 2009, published 2012)
